This is an account of results in patent US6051718A, “PDE IV inhibiting 2-cyanoiminoimidazole derivatives” (Janssen Pharmaceutica, N.V., priority 1996, dated 2000).

By IC50 is commonly meant the concentration at which inhibition is half-maximal.

The target of this assay is T1, recombinant human MNL phosphodiesterase PDE IV B (Homo sapiens, UniProt Q07343).
T1 construct: made in house
The experiment in a line: Inhibition of recombinant human mononuclear lymphocyte (MNL) phosphodiesterase type IV B produced in insect cells with a baculovirus vector. It is filed as biochemical. The settings on record: 3H-cAMP 0.8 μM, 10 minutes, 37° C., pH 8, DMSO 1%. The method, then: Example C.1: Inhibition of Recombinant Human Mononuclear Lymphocyte (MNL) Phosphodiesterase Type IV B Produced in Insect Cells with a Baculovirus Vector
The alleviating and/or curing effect of the instant compounds on allergic and atopic diseases was assessed by an in vitro assay system to detect an inhibiting effect on the recombinant human MNL phosphodiesterase type IV B.
Seventy-two hours after infection with recombinant baculovirus, the insect cells were harvested and pelleted at 500 g for 5 minutes. The cells were lysed in 10 ml lysis-buffer consisting of 20 mM Tris, 10 mM EGTA, 2 mM Na2 EDTA, 1% Triton-X-100, 1 mM Na3 VO4, 10 mM NaF, 2 μg/ml of leupeptine, pepstatine and aprotinine, 0.3 μg/ml benzamidine and 100 μg/ml TPCK pH 7.5. After 5 minutes on ice, solubilized cells were centrifuged at 4000 rpm for 15 minutes at 4° C. The resulting supernatant was filtered through a 0.45 μm filter (Millipore) and brought to TBS buffer (50 mM Tris, 150 mM NaCl pH 7.4).
After washing the column with equilibration buffer, PDE IV was eluted in 1.5 ml fractions containing 37.5 μl 1M Tris pH 8. The fractions were dialyzed overnight against 20 mM Tris, 2 mM Na2 EDTA and 400 mM NaCl pH 7.5 and tested for PDE IV activity. Indentification was done on SDS PAGE and Western Blot (anti-FLAG-M2). Active fractions were pooled, brought to 10% glycerol and stored at -70° C.
The incubation mixture (pH 8) (200 μl) contained 20 mM Tris, 10 mM magnesium sulphate, 0.8 μM ^3 H-cAMP (310 mCi/mmole) and the phosphodiesterase type IV, the amount depending on the enzymatic activity. […] When the effect of different compounds on phosphodiesterase activity was tested, the medium without cAMP was incubated with the compound(s) or its carrier (DMSO-1% final concentration) for 5 minutes. […] After cooling to room temperature, alkaline phosphatase (0.25 μg/ml) was added and the mixture was incubated at 37° C. for 20 min. 100 μl of the mixture was subsequently applied to a GF-B filter-microtiter-plate (Millipore) filled with 300 μl DEAE-Sephadex-A25 suspension. The plate was washed 3 times with 75 μl 20 mM Tris pH 7.5 and the filtrates were collected for counting in the Packard Top Count scintillation counter.
The inhibiting effect of the present compounds on recombinant human MNL phosphodiesterase PDE IV B was measured at different concentrations of the instant compounds.

T1 sequence (Q07343 whole entry): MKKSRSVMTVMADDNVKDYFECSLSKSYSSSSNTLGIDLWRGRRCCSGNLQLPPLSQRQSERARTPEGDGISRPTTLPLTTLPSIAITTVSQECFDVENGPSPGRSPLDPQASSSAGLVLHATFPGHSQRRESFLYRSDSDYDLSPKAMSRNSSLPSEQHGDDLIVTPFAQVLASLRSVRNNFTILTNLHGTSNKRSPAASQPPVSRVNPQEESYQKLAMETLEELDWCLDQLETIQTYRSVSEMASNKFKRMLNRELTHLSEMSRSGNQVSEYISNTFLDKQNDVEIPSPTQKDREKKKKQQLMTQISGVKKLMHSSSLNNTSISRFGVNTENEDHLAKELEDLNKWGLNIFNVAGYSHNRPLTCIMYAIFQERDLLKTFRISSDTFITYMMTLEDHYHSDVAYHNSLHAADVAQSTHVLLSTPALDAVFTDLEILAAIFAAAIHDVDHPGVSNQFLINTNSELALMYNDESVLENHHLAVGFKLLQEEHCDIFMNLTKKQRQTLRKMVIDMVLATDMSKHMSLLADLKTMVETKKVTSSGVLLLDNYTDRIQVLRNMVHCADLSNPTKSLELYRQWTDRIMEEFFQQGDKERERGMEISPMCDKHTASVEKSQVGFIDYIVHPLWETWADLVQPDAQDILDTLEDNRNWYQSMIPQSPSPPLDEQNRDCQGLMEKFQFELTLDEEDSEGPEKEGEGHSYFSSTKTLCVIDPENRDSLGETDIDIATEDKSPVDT

On to `COc1ccc(C(C)CN2CCNC2=NC#N)cc1OC1CCCC1` (racemic) [Compound 1, (±)-[1-[2-[3-(cyclopentyloxy)-4-methoxyphenyl]propyl]-2-imidazolidinylidene] cyanamide], for which the IC50 is 330 nM.

On to `CC(Cn1cc[nH]c1=NC#N)c1ccc(OC(F)F)c(OC2CCOC2)c1` (racemic) [Compound 2, (±)-[1-[2-[4-(difluoromethoxy)-3-[(tetrahydro-3-furanyl)oxy]phenyl]-propyl]-1,3-dihydro-2H-imidazol-2-ylidene]cyanamide], for which the half-maximal inhibitory concentration (IC50) was found to be 100 nM.

Take `COc1ccc(C(C)Cn2ccnc2NC#N)cc1OC1CCCC1` (single isomer, unassigned) [Compound 12]: the IC50 worked out at 21.9 nM.

For `COc1ccc(C(C)Cn2ccnc2NC#N)cc1OC1CCCC1` (single isomer, unassigned) [Compound 13], the IC50 was 22.2 nM.

`COc1ccc(C(C)Cn2ccnc2NC#N)cc1OCC1CC1` (single isomer, unassigned) [Compound 14]: the IC50 is 27.2 nM.

On to `COc1ccc(C(C)Cn2ccnc2NC#N)cc1OCC1CC1` (single isomer, unassigned) [Compound 15], for which the IC50 was determined as 33.5 nM.

As for `COc1ccc(C(C)Cn2ccnc2NC#N)cc1OCCCCCc1ccccc1` (single isomer, unassigned) [Compound 18], the IC50 was determined as 40.9 nM.

Consider `COc1ccc(C(C)Cn2ccnc2NC#N)cc1OCCCCCc1ccccc1` (single isomer, unassigned) [Compound 19], for which the IC50 amounted to 37.5 nM.

Turning to `COc1ccc(C(C)Cn2cc[nH]c2=NC#N)cc1OC1CCCC1` (centres unmarked) [Compound 3], the IC50 was 30 nM.

As to `CC(Cn1cc[nH]c1=NC#N)c1ccc(OC(F)F)c(OC2CCCC2)c1` (centres unmarked) [Compound 4], the IC50 worked out at 15.3 nM.

As to `N#CN=c1[nH]ccn1CCc1ccc(OC(F)F)c(OC2CCCC2)c1` [Compound 5], the IC50 was 26.6 nM.

As for `CC(Cn1cc[nH]c1=NC#N)c1ccc(OC(F)F)c(OCC2CC2)c1` (centres unmarked) [Compound 6], the IC50 came to 22.4 nM.

Consider `COc1ccc(C(C)Cn2cc[nH]c2=NC#N)cc1OCC1CC1` (centres unmarked) [Compound 8], for which the IC50 came out at 56.5 nM.

As to `COc1ccc(C(C)Cn2cc[nH]c2=NC#N)cc1OCCCCCc1ccccc1` (centres unmarked) [Compound 9], the IC50 was 36.1 nM.

Turning to `COc1ccc(C(C)Cn2cc[nH]c2=NC#N)cc1OC1CCOC1` (centres unmarked) [Compound 10], the IC50 is 196 nM.

Consider `CC(Cn1ccnc1NC#N)c1ccc(OC(F)F)c(OCCCCCc2ccccc2)c1` (centres unmarked) [Compound 11], for which the half-inhibitory concentration (IC50) turned out to be 32.7 nM.

In the case of `COc1ccc(CCn2cc[nH]c2=NC#N)cc1OC1Cc2ccccc2C1` [Compound 20], the IC50 came out at 76.5 nM.
